Results published in patent publication US8338380B2, “Use of the peptide RFMWMR as a therapeutic agent” (priority 2007, dated 2012).

Experiments:
MRSA = experiment: Methicillin resistant Staphylococcus aureus (MRSA) assay; format: cell-based; settings: peptide 10 micrograms per ml, macroscopic growth, read visually
TNF alpha = TNF alpha production assay in LPS-stimulated macrophages (ELISA); format: cell-based, human; settings: PBMC-derived macrophages, 10 micrograms per ml 30 min before lipopolysaccharide 200 ng/ml, overnight
Description: Not stimulated macrophages served as negative background control.

Pseudomonas aeruginosa = Pseudomonas aeruginosa assay; format: cell-based; settings: peptide 10 micrograms per ml, macroscopic growth, read visually
Interferon-γ (IFN-γ) = experiment: Th1/Th2 cytokine profiling assay: IFN-γ; format: cell-based; settings: Ovalbumin-restimulated spleen cells of immunized Balb/c mice; 10 micrograms per ml; 72 hours
RAW 264.7 cells = experiment: Phagocytosis assay (Fluorescein-labeled Escherichia coli); format: cell-based, Mouse; settings: 10 micrograms per ml, 30 min preincubation, 60 min ingestion, flow cytometry
[1] = system: Primary Human endothelial cells (HUVEC); experiment: Endothelial cell migration assay; format: cell-based; settings: 10 micrograms per ml, 22 hours
[2] = Cytotoxicity in MRC-5 cells (CellTiter 96); settings: human, MRC-5 cells (embryonal lung fibroblasts)
[3] = Cytotoxicity in CEM-SS cells (MTS) of the HIV-1 experiments; settings: human
HCMV strain AD169 = experiment: HCMV plaque reduction assay in MRC-5 cells; settings: HCMV AD169 in MRC-5 cells; peptide 10 micrograms per ml; 7-10 days
[4] = system: Human Peripheral Blood Mononuclear Cells (PBMC); experiment: B cell proliferation assay (SAC plus Interleukin-2, 3H-thymidine); format: cell-based; settings: 10 micrograms per ml, 3 days, 3H-thymidine incorporation
A549 cells [5] = experiment: Apoptosis induction assay (Annexin-5); format: cell-based, Human; settings: apoptosis in A549 cells, 10 micrograms per ml, 24 hours
A549 cells [6] = experiment: Propidium iodide cell cycle assay; format: cell-based, Human; settings: 10 micrograms per ml, 24 hours, FACS
HUVEC = experiment: Endothelial tube formation assay; format: cell-based, Human; settings: 10 micrograms per ml, 20 hours, average tubule length
Description: Positive control was vehicle only.

A549 cells [7] = experiment: Apoptosis prevention assay (C2 ceramide, Annexin-5); format: cell-based, Human; settings: A549 cells pretreated 30 min with 10 micrograms per ml, then C2 ceramide
Interleukin-5 (IL-5) = experiment: Th1/Th2 cytokine profiling assay: IL-5; format: cell-based; settings: Ovalbumin-restimulated spleen cells of immunized Balb/c mice; 10 micrograms per ml; 72 hours
[8] = system: Human Peripheral Blood Mononuclear Cells (PBMC); experiment: T cell proliferation assay (PHA, 3H-thymidine); format: cell-based; settings: 10 micrograms per ml, 3 days, 3H-thymidine incorporation
[9] = system: hepatitis B virus (HBV) ayw strain; experiment: HBV experimental assay system (secreted HBV DNA, TaqMan PCR); format: cell-based; settings: HepG2-2.2.15 cells; peptide 10 micrograms per ml; six days; HBV DNA in supernatant
Procedure: HepG2-2.2.15 is a stable cell line containing the hepatitis B virus (HBV) ayw strain genome (ATCC Cat. No. CRL-11997). Antiviral compounds blocking any late step of viral replication such as transcription, translation, pregenome encapsidation, reverse transcription, particle assembly and release can be identified and characterized using this cell line.
HepG2-2.2.15 cells were plated in 96-well microtiter plates. After 16-24 hours the confluent monolayer of HepG2-2.2.15 cells was washed and the medium was replaced with complete medium containing test peptide—10 micrograms per ml—in duplicate. […] Three days later the culture medium was replaced with fresh medium containing the peptide. Six days following the initial administration of the peptide, the cell culture supernatants was collected, treated with pronase and DNAse and then used in a real-time quantitative TaqMan PCR assay. The PCR-amplified HBV DNA was detected in real-time by monitoring increases in fluorescence signals that result from the exonucleolytic degradation of a quenched fluorescence probe molecule that hybridizes to the amplified HBV DNA. For each PCR amplification, a standard curve was simultaneously generated using dilutions of purified HBV DNA. Antiviral activity was calculated from the reduction in HBV DNA levels (% virus control). […]

Streptococcus pneumoniae = Streptococcus pneumoniae assay; format: cell-based; settings: peptide 10 micrograms per ml, macroscopic growth, read visually
Interleukin-4 (IL-4) = experiment: Th1/Th2 cytokine profiling assay: IL-4; format: cell-based; settings: Ovalbumin-restimulated spleen cells of immunized Balb/c mice; 10 micrograms per ml; 72 hours
HIV-1IIIB = experiment: HIV-1 antiviral assay (CPE reduction, MTS); format: cell-based; settings: peptide 10 micrograms per ml, 6 days post-infection
Interleukin-2 (IL-2) = experiment: Th1/Th2 cytokine profiling assay: IL-2; format: cell-based; settings: Ovalbumin-restimulated spleen cells of immunized Balb/c mice; 10 micrograms per ml; 72 hours
[10] = Cytotoxicity in HepG2-2.2.15 cells (dye uptake assay); format: cell-based; settings: human, peptide 10 micrograms per ml, read-out: % Cell Viability
[11] = system: Tumor Necrosis Factor-α (TNF-α); experiment: Th1/Th2 cytokine profiling assay: TNF-α; format: cell-based; settings: Ovalbumin-restimulated spleen cells of immunized Balb/c mice; 10 micrograms per ml; 72 hours

Ac-RFMWMR-NH2 [Ac-Arg-Phe-Met-Trp-Met-Arg-NH2]
% inhibition (MRSA): 0.0%
% of LPS induction (TNF alpha): 149.8%
% inhibition (Pseudomonas aeruginosa): 0.0%
INFγ spleen cells; TH1 response (% of control) (Interferon-γ (IFN-γ)): 218.6 % of control
% of control phagocytosis (RAW 264.7 cells): 105.9%
% inhibition of migration [1]: −15%
viability at 144 h [2]: 84%
viability at 10 micrograms per ml [3]: 100%
% plaque reduction (HCMV strain AD169): 0.0%
% of SAC/IL2 induced control [4]: 106.3%
% of induction (A549 cells [5]): 1.2%
Cell cycle analysis G0/G1 (A549 cells [6]): 59.2
Cell cycle analysis G2/M (A549 cells [6]): 8.2
Cell cycle analysis S (A549 cells [6]): 32.7
% inhibition of tube formation (HUVEC): 23%
% prevention of ceramide induced apoptosis (A549 cells [7]): 0.0%
IL-5 spleen cells; TH2 response (% of control) (Interleukin-5 (IL-5)): 93.8 % of control
% of PHA induced control [8]: 109.1%
% inhibition of HBV replication in HEP G2 cells [9]: 46.8%
% inhibition (Streptococcus pneumoniae): 0.0%
IL-4 spleen cells; TH2 response (% of control) (Interleukin-4 (IL-4)): 156.2 % of control
% CPE reduction in HIV-1 infected CEM-SS cells (HIV-1IIIB): 0.0%
IL-2 spleen cells (% of control) (Interleukin-2 (IL-2)): 156.5 % of control
viability at 144 h, 10 micrograms per ml [10]: 100%
TNF-a spleen cells; TH1 response (% of control) [11]: 118.8 % of control
